Laboratory results from EP4603105A1, “PHARMACEUTICAL COMPOSITION CONTAINING CYCLIC COMPOUND HAVING SELECTIVE KRAS INHIBITORY EFFECT AGAINST HRAS AND NRAS” (CHUGAI SEIYAKU KABUSHIKI KAISHA, priority 2022, dated 2024).
Where a SMILES comes first, the peptide text is derived from it. Bridges are numbered along the chain shown (N, C = ends). [ ]: non-standard residue; d: D form. The star is where a group is joined. hPhe(3,5-F2-4-CF3) = N[C@@H](CCc1cc(F)c(C(F)(F)F)c(F)c1)C(=O)O; hPhe(3-Cl-4-CF3) = N[C@@H](CCc1ccc(C(F)(F)F)c(Cl)c1)C(=O)O; NPrPhe(4-CF3) = CCCN[C@@H](Cc1ccc(C(F)(F)F)cc1)C(=O)O; NMeGly(cPent) = CN[C@H](C(=O)O)C1CCCC1; Hyp = O=C(O)[C@@H]1C[C@@H](O)CN1; NMeD = CN[C@@H](CC(=O)O)C(=O)O; NMeL = CN[C@@H](CC(C)C)C(=O)O; Morpholide = C1CN(*)CCO1; NMeA = CN[C@@H](C)C(=O)O; Ac5c = NC1(C(=O)O)CCCC1; Aze = O=C(O)[C@@H]1CCN1; Sar = CNCC(=O)O

Experiments:
HRAS wild-type protein = HRAS wild-type protein (Homo sapiens, UniProt P01112); assay: Binding to HRAS by surface plasmon resonance (SPR), KD and KD ratio to KRAS
Method in brief: (§1)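 Biotinylated GDP-bound RAS was captured at about 100–300 RU. Running buffer: HBS pH 7.4, 10 mM MgCl2, 10 µM GDP, 1 mM DTT, 0.01% Tween 20, 4% DMSO.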

[1] = system: human lung cancer strain NCI-H441; assay type: cell-based
Method in brief: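 Step one: dispense the test compound in serial DMSO dilutions. Step three: add the reagent and measure […].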

[2] = target: GDP-bound NRAS wild-type protein (Homo sapiens, UniProt P01111); assay: Binding to NRAS by surface plasmon resonance (SPR), KD and KD ratio to KRAS
Method in brief: as §1

[3] = ratio of KD value for HRAS wild-type protein to KD value for KRAS (SPR)
[4] = ratio of KD value for GDP-bound NRAS wild-type protein to KD value for KRAS (SPR)
[5] = ratio of KD for HRAS wild-type protein to KD for KRAS
[6] = ratio of KD for GDP-bound NRAS wild-type protein to KD for KRAS
[7] = ratio of the KD value with respect to HRAS wild-type protein to the KD value with respect to KRAS
[8] = ratio of the KD value with respect to GDP-bound NRAS wild-type protein to the KD value with respect to KRAS

Chain of HRAS wild-type protein (P01112 whole entry): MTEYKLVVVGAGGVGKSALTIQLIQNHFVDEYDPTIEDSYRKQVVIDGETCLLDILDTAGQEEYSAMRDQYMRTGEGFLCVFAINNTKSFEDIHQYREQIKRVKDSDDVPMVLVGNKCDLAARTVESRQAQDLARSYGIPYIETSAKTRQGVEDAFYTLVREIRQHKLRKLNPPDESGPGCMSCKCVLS
Chain of GDP-bound NRAS wild-type protein (P01111 whole entry): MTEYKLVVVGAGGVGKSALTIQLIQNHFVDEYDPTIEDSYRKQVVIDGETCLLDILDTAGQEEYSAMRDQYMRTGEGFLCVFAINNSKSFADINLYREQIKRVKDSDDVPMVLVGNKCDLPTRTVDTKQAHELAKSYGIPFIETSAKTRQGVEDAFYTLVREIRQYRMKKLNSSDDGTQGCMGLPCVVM

| Compound | IC50 [1] [nM] | HRAS /KRAS (HRAS wild-type protein; [3]) | NRAS /KRAS [2, 4] | HRAS /KRAS (HRAS wild-type protein; [5]) | NRAS /KRAS [2, 6] | HRAS /KRAS (HRAS wild-type protein; [7]) | NRAS /KRAS [2, 8] |
| --- | --- | --- | --- | --- | --- | --- | --- |
| CCO[C@@H]1C[C@H]2C(=O)NC3(CCC3)C(=O)N(C)[C@@H](C3CCCC3)C(=O)N(CC)[C@H](C(=O)N(C)C)CC(=O)N(C)[C@@H](CC)C(=O)N[C@@H]([C@@H](C)CC)C(=O)N(C)CC(=O)N(C)[C@H]3CCCCCN(C3=O)[C@@H](Cc3ccc(C(F)(F)F)cc3)C(=O)N(C)CC(=O)N[C@@H](CCc3cc(F)c(C(F)(F)F)c(F)c3)C(=O)N2C1 [PP0633] | 116 |  |  |  |  | B (a compound having 3 or more and less than 10 is denoted as B) | B (a compound having 3 or more and less than 10 is denoted as B) |
| CCCN1C(=O)[C@@H]2CCN2C(=O)[C@H](C)N(C)C(=O)[C@H]([C@@H](C)CC)NC(=O)[C@H](CC(C)C)N(C)C(=O)C[C@@H](C(=O)N2CCOCC2)N(C)C(=O)[C@H](C2CCCC2)N(C)C(=O)C2(CCCC2)NC(=O)[C@@H]2C[C@@H](OC)CN2C(=O)[C@H](CCc2ccc(C(F)(F)F)c(Cl)c2)NC(=O)CN(C)C(=O)[C@@H]1Cc1ccc(C(F)(F)F)cc1 [PP0283] ([NMeL]I[NMeA][Aze][NPrPhe(4-CF3)][Sar][hPhe(3-Cl-4-CF3)][Hyp](Me)[Ac5c][NMeGly(cPent)][NMeD]-Morpholide; lactam N-11) | 1.9 |  |  | C (A compound having a KD ratio of 0.1 or more and less than 3 is denoted as C) | C (A compound having a KD ratio of 0.1 or more and less than 3 is denoted as C) |  |  |
| CC[C@H](C)[C@@H]1NC(=O)[C@H](CC(C)C)N(C)C(=O)C[C@@H](C(=O)N2CCOCC2)N(C)C(=O)[C@H](C2CCCC2)N(C)C(=O)C2(CCC2)NC(=O)[C@@H]2CCCN2C(=O)[C@H](CCc2cc(F)c(C(F)(F)F)c(F)c2)NC(=O)CN(C)C(=O)[C@H](Cc2ccc(C(F)(F)F)cc2)N2CCCCC[C@@H](C2=O)N(C)C(=O)CN(C)C1=O [PP0497] | 44.2 |  |  |  |  | B (a compound having 3 or more and less than 10 is denoted as B) | B (a compound having 3 or more and less than 10 is denoted as B) |
| CCO[C@@H]1C[C@H]2C(=O)NC3(CCC3)C(=O)N(C)[C@@H](C3CCCC3)C(=O)N(C)[C@H](C(=O)N(C)C)CC(=O)N(C)[C@@H](COC)C(=O)N[C@@H]([C@@H](C)CC)C(=O)NCC(=O)N(C)[C@H]3CCCCCN(C3=O)[C@@H](Cc3ccc(C(F)(F)F)cc3)C(=O)N(C)CC(=O)N[C@@H](CCc3cc(F)c(C(F)(F)F)c(F)c3)C(=O)N2C1 [PP0859] | 22.4 |  |  | B (a compound having 3 or more and less than 10 is denoted as B) | B (a compound having 3 or more and less than 10 is denoted as B) |  |  |
| CCC[C@H]1C(=O)N[C@@H]([C@@H](C)CC)C(=O)N(C)CC(=O)N(C)[C@H]2C/C=C\CCN(C2=O)[C@@H](Cc2ccc(C(F)(F)F)cc2)C(=O)N(C)CC(=O)N[C@@H](CCc2cc(F)c(C(F)(F)F)c(F)c2)C(=O)N2C[C@H](OCC)C[C@H]2C(=O)NC2(CCC2)C(=O)N(C)[C@@H](C2CCCC2)C(=O)N(C)[C@H](C(=O)N(C)C)CC(=O)N1C [PP1110] | 11.2 |  |  | B (a compound having 3 or more and less than 10 is denoted as B) | A (a compound having 10 or more and less than 20 is denoted as A) |  |  |
| CC[C@H](C)[C@@H]1NC(=O)[C@H](CC2CC2)N(C)C(=O)C[C@@H](C(=O)N(C)C)N(C)C(=O)[C@H](C2CCCC2)N(C)C(=O)C2(CC(C)(C)C2)NC(=O)[C@@H]2C[C@@H](C(F)(F)F)CN2C(=O)[C@H](CCc2cc(F)c(C(F)(F)F)c(F)c2)NC(=O)CN(C)C(=O)[C@H](Cc2ccc(F)cc2)N2CC/C=C\C[C@@H](C2=O)N(C)C(=O)CN(C)C1=O [PP1507] | 16.2 | A (a compound having 10 or more and less than 20 is denoted as A) | A (a compound having 10 or more and less than 20 is denoted as A) |  |  |  |  |
| CCCN1C(=O)CN(C)C(=O)[C@@H]2CCN2C(=O)[C@H]([C@@H](C)CC)NC(=O)[C@H](CC(C)C)N(C)C(=O)C[C@@H](C(=O)N2CCOCC2)N(C)C(=O)[C@H](C2CCCC2)N(C)C(=O)C2(CCCC2)NC(=O)[C@@H]2CCCN2C(=O)[C@H](CCc2cc(F)c(C(F)(F)F)c(F)c2)NC(=O)CN(C)C(=O)[C@@H]1Cc1ccc(C(F)(F)F)cc1 [PP0770] ([NMeL]I[Aze][Sar][NPrPhe(4-CF3)][Sar][hPhe(3,5-F2-4-CF3)]P[Ac5c][NMeGly(cPent)][NMeD]-Morpholide; lactam N-11) | 62.2 |  |  | B (a compound having 3 or more and less than 10 is denoted as B) | B (a compound having 3 or more and less than 10 is denoted as B) |  |  |

Further lines, with some results ahead:

| IC50 [1] [nM] | Compound | HRAS /KRAS (HRAS wild-type protein; [3]) | NRAS /KRAS [2, 4] | HRAS /KRAS (HRAS wild-type protein; [5]) | NRAS /KRAS [2, 6] | HRAS /KRAS (HRAS wild-type protein; [7]) | NRAS /KRAS [2, 8] |
| --- | --- | --- | --- | --- | --- | --- | --- |
| 9.5 | CC[C@H](C)[C@@H]1NC(=O)[C@H](CC)N(C)C(=O)C[C@@H](C(=O)N(C)C)N(C)C(=O)[C@H](C2CCCC2)N(C)C(=O)C2(CCC2)N(C)C(=O)[C@@H]2C[C@@H](C)CN2C(=O)[C@H](CCc2cc(F)c(C(F)(F)F)c(F)c2)NC(=O)CN(C)C(=O)[C@H](Cc2ccc(C)cc2)N2CC/C=C\C[C@@H](C2=O)N(C)C(=O)[C@@H]2CCCN2C1=O [PP1789] | A (a compound having 10 or more and less than 20 is denoted as A) | A (a compound having 10 or more and less than 20 is denoted as A) |  |  |  |  |
| 8.3 | CCCC[C@H]1C(=O)N[C@@H]([C@@H](C)CC)C(=O)N(C)CC(=O)N(C)[C@H]2C/C=C\CCN(C2=O)[C@@H](Cc2ccc(C(F)(F)F)cc2)C(=O)N(C)CC(=O)N[C@@H](CCc2ccc(C(F)(F)F)c(OC)c2)C(=O)N2C[C@H](OCC)C[C@H]2C(=O)NC2(CCC2)C(=O)N(C)[C@@H](C2CCCC2)C(=O)N(C)[C@H](C(=O)N(C)CC)CC(=O)N1C [PP2840] |  |  | A (a compound having 10 or more and less than 20 is denoted as A) | A (a compound having 10 or more and less than 20 is denoted as A) |  |  |
| 4.6 | CCO[C@@H]1C[C@H]2C(=O)NC3(CCC3)C(=O)N(C)[C@@H](C(CC)CC)C(=O)N(C)[C@H](C(=O)N3CCCC3)CC(=O)N(C)[C@H]3CCC/C=C/c4ccc(cc4)C[C@@H](C(=O)N(C)CC(=O)N[C@@H](CCc4cc(F)c(C(F)(F)F)c(F)c4)C(=O)N2C1)N1CC/C=C\C[C@@H](C1=O)N(C)C(=O)CN(C1CC1)C(=O)[C@H]([C@@H](C)CC)NC3=O [PP2957] |  |  | A (a compound having 10 or more and less than 20 is denoted as A) | AA (a compound having 20 or more is denoted as AA) |  |  |
| 36.3 | CCO[C@@H]1C[C@H]2C(=O)NC3(CC(C)(C)C3)C(=O)N(C)[C@@H](C3CCCC3)C(=O)N(C)[C@H](C3CCC3)CC(=O)N(C)[C@@H](CC3CC3)C(=O)N[C@@H]([C@@H](C)CC)C(=O)N(C)CC(=O)N(C)[C@H]3C/C=C\CCN(C3=O)[C@@H](Cc3ccc(C(F)(F)F)cc3)C(=O)N(C)CC(=O)N[C@@H](CCc3cc(F)c(C(F)(F)F)c(F)c3)C(=O)N2C1 [PP1635] | A (a compound having 10 or more and less than 20 is denoted as A) | B (a compound having 3 or more and less than 10 is denoted as B) |  |  |  |  |
| 2.3 | CC[C@H](C)[C@@H]1NC(=O)[C@@H]2CCCCc3ccc(cc3)C[C@@H](C(=O)N(C)CC(=O)N[C@@H](CCc3ccc(C(F)(F)F)c(OC)c3)C(=O)N3C[C@H](OC(C)C)C[C@H]3C(=O)NC3(CC(C)(C)C3)C(=O)N(C)[C@@H](C3CCCC3)C(=O)N(C)[C@H](C(=O)N(C)CC)CC(=O)N2C)N2CC/C=C\C[C@@H](C2=O)N(C)C(=O)CN(C)C1=O [PP3078] |  |  | B (a compound having 3 or more and less than 10 is denoted as B) | A (a compound having 10 or more and less than 20 is denoted as A) |  |  |
| 20.9 | CCO[C@@H]1C[C@H]2C(=O)NC3(CC(F)(F)C3)C(=O)N(C)[C@@H](C3CCCC3)C(=O)N3CCC[C@@H]3CC(=O)N(C)[C@@H](CC3CC3)C(=O)N[C@@H]([C@@H](C)CC)C(=O)N(C)CC(=O)N(C)[C@H]3C/C=C\CCN(C3=O)[C@@H](Cc3ccc(C(F)(F)F)cc3)C(=O)N(C)CC(=O)N[C@@H](CCc3cc(F)c(C(F)(F)F)c(F)c3)C(=O)N2C1 [PP1615] | B (a compound having 3 or more and less than 10 is denoted as B) | B (a compound having 3 or more and less than 10 is denoted as B) |  |  |  |  |
| 52.9 | CCO[C@@H]1C[C@H]2C(=O)NC3(CC(C)(C)C3)C(=O)N(C)[C@@H](C(CC)CC)C(=O)N(C)[C@H](C(=O)N(C)C)CC(=O)N(C)[C@@H](CC(C)C)C(=O)N[C@@H]([C@@H](C)CC)C(=O)N(C)CC(=O)N(C)[C@H]3C/C=C\CCN(C3=O)[C@@H](Cc3ccc(C(F)(F)F)cc3)C(=O)N(C)CC(=O)N[C@@H](CCc3ccc(Cl)c(Cl)c3)C(=O)N2C1 [PP2176] |  |  |  |  | A (a compound having 10 or more and less than 20 is denoted as A) | AA (a compound having 20 or more is denoted as AA) |
| 143 | CCOC[C@H]1C(=O)N[C@@H]([C@@H](C)CC)C(=O)N(C)CC(=O)N(C)[C@H]2C/C=C\CCN(C2=O)[C@@H](CC2CCC(F)(F)CC2)C(=O)N(C)CC(=O)N[C@@H](CCc2ccc(C(F)(F)F)c(OC)c2)C(=O)N2C[C@H](OCC)C[C@H]2C(=O)N(C)C2(CCC2)C(=O)N(C)[C@@H](C(CC)CC)C(=O)N(C)[C@H](C(=O)N(C)C)CC(=O)N1C [PP2347] |  |  |  |  | A (a compound having 10 or more and less than 20 is denoted as A) | A (a compound having 10 or more and less than 20 is denoted as A) |
